The structures appear in SMILES notation.

One assay concerns the target T1, DGKζ (Homo sapiens, UniProt Q13574).
T1 construct: purchased Carna 12-110
Put plainly: DGKζ biochemical assay (ADP-Glo). The note with it: read-out: DGK ζ IC50. Here is the method: (§1) Compounds of the present invention were prepared into 10 mM DMSO solution and 10 nL of stock was transferred into 384 plates (Optiplate 384 plate) using Echo550. DMSO was used as high control, and ATP substrate buffer was used as a low control. A 1× enzyme assay buffer was prepared (Hepes, pH 7.0 25 mM, BSA 0.05%, Triton-X100 0.002%, CaCl2) 1 μM, MgCl2 10 mM, DTT 2 mM). […] OAG (1-oleoyl-2-acetyl-sn-glycerol, 25 mg/ml, Avanti 8001000) and PS (10 mg/ml, Avanti 840032P) were mixed at the ratio of 1:2. A 1× substrate solution was prepared with 1× assay buffer by 100-fold dilution. The substrate solution was sonicated on ice for 1 min. The pure ATP was added to the substrate solution (DGKα:400 μM). 5 μL of the enzyme solution were added to the 384 well plate, and the plate was spun for 1 min at 1000 rpm and incubated for 30 mins at RT. 5 μL of 1× substrate solution were added to the 384 well plate, the plate was spun and then incubated for 45 mins at RT. 10 μL ADP-Glo […] was added to stop the assay. After 60 mins at RT, 20 μL ADP-Glo Detection buffer was added as the final step. Plate was read after 45 min incubation at RT.
(§2) Data analysis was performed by calculating the […] using following the formula:
(§3) [formula] • High control (Hc): DMSO/DGKα(DGKζ)/Substrate/ATP/ADP-Glo • Low Control (Lc): ATP/ADP-Glo

Another assay concerns the target DGKα (Homo sapiens, UniProt P23743). In words: DGKα biochemical assay (ADP-Glo). The note with it: read-out: DGK α IC50. The method, then:
as §1, §2, §3

Sequence of DGKα (P23743 whole entry): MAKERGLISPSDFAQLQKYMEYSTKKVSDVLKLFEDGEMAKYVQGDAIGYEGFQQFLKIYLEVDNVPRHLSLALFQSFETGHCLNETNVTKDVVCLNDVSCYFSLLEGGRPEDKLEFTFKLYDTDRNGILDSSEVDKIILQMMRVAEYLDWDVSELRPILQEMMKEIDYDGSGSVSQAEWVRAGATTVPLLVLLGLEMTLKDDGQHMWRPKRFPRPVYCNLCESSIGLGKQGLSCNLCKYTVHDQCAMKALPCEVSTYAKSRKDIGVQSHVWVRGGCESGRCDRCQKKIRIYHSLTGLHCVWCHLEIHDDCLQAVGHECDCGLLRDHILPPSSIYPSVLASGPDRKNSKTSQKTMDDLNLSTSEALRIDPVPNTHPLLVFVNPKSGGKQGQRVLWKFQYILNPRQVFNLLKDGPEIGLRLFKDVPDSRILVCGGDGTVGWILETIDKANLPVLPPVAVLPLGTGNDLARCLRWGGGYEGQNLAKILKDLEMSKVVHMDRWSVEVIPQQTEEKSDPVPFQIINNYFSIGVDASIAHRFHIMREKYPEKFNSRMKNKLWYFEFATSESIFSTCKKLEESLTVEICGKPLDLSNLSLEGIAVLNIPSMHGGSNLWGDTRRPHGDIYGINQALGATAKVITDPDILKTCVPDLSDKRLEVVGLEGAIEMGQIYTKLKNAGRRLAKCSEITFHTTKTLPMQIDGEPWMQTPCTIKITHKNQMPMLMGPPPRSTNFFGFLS
T1 sequence (Q13574 1-929 isoform Q13574-4): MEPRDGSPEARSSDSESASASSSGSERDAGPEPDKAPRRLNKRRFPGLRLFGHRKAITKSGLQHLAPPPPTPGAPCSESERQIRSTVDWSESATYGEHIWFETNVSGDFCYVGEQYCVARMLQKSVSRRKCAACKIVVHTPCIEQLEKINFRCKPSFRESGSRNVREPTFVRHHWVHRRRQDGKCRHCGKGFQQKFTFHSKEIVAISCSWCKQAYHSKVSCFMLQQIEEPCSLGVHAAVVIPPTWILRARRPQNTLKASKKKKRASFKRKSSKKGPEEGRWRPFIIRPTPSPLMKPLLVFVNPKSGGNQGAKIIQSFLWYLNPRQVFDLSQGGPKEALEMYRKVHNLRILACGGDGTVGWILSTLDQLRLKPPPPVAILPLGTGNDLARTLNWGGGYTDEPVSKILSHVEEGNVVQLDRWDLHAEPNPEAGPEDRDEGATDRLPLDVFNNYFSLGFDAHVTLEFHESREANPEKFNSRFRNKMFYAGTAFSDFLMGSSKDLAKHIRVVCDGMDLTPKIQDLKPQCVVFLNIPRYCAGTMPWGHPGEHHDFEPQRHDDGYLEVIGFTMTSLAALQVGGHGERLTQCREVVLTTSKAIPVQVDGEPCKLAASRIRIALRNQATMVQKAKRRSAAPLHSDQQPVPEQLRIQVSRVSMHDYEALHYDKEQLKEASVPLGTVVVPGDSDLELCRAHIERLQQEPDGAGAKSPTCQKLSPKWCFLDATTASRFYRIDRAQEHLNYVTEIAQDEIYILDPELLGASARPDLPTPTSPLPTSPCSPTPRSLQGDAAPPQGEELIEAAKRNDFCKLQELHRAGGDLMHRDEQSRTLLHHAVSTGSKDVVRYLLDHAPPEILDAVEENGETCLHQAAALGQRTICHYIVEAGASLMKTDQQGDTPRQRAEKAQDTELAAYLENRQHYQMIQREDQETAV

For `Cn1c(=O)cc(N(C)[C@H]2CC[C@@H](N(CC3CC3)c3cccc(F)c3)CC2)c2nc(C#N)ccc21` [Example 24, cis-8-((4-((cyclopropylmethyl)(3-fluorophenyl)amino)cyclohexyl)(methyl)amino)-5-methyl-6-oxo-5,6-dihydro-1,5-naphthyridine-2-carbonitrile], the IC50 on DGKζ is not below 1000 nM; at DGKα it was 10 to 100 nM.

Take `Cn1c(=O)cc(N(C)[C@H]2CC[C@H](N(CC3COC3)c3ccc(F)cc3O)CC2)c2nc(C#N)ccc21` [Example 3BB, trans-8-((4-((4-fluoro-2-hydroxyphenyl)(oxetan-3-ylmethyl)amino)cyclohexyl)(methyl)amino)-5-methyl-6-oxo-5,6-dihydro-1,5-naphthyridine-2-carbonitrile]: the IC50 at DGKζ and at DGKα was not below 1000 nM in each case.

Consider `COc1cccc(N(CC2CC2)[C@H]2CC[C@H](N(C)c3c(C#N)c(=O)n(C)c4ccc(Cl)nc34)CC2)c1` [Example 21, trans-6-chloro-4-((4-((cyclopropylmethyl)(3-methoxyphenyl)amino)cyclohexyl)(methyl)amino)-1-methyl-2-oxo-1,2-dihydro-1,5-naphthyridine-3-carbonitrile], for which the IC50 on DGKζ is not below 1000 nM; on DGKα, 10 to 100 nM.

As for `Cn1c(=O)c(C#N)c(N(C)[C@H]2CC[C@@H](N(CC3CCC3)c3cccc4c3OCO4)CC2)c2nc(C#N)ccc21` [Example 109, cis-8-((-4-(benzo[d][1,3]dioxol-4-yl(cyclobutylmethyl)amino)cyclohexyl)(methyl)amino)-5-methyl-6-oxo-5,6-dihydro-1,5-naphthyridine-2,7-dicarbonitrile], the IC50 at DGKζ and on DGKα was 10 to 100 nM each time.

In the case of `Cn1c(=O)c(C#N)c(N(C)[C@H]2CC[C@@H](N(C[C@@H]3CCOC3)c3ccc(F)cc3)CC2)c2nc(C#N)ccc21` [Example 67], the IC50 at DGKζ lay within 100 to 1000 nM; at DGKα it was 10 to 100 nM.

With `Cn1c(=O)c(C#N)c(N(C)[C@H]2CC[C@H](N(CC3CCOCC3)c3ccc(F)cc3)CC2)c2nc(C#N)ccc21` [Example 59, trans-8-((-4-((4-fluorophenyl)((tetrahydro-2H-pyran-4-yl)methyl)amino)cyclohexyl)(methyl)amino)-5-methyl-6-oxo-5,6-dihydro-1,5-naphthyridine-2,7-dicarbonitrile], the IC50 on DGKζ and on DGKα was 100 to 1000 nM throughout.

For `Cn1c(=O)cc(N(C)[C@H]2CC[C@@H](N(CC3CCC3)c3cccc4c3OCO4)CC2)c2nc(C#N)ccc21` [Example 111, cis-8-((-4-(benzo[d][1,3]dioxol-4-yl(cyclobutylmethyl)amino)cyclohexyl)(methyl)amino)-5-methyl-6-oxo-5,6-dihydro-1,5-naphthyridine-2-carbonitrile], the IC50 at DGKζ and on DGKα was 100 to 1000 nM in each case.

As for `COc1cc(F)ccc1N(C1CC1)[C@H]1CC[C@@H](N(C)c2cc(=O)n(C)c3ccc(C#N)nc23)CC1` [Example 3W, cis-8-[[4-(N-Cyclopropyl-4-fluoro-2-methoxy-anilino)cyclohexyl]-methyl-amino]-5-methyl-6-oxo-1,5-naphthyridine-2-carbonitrile], the IC50 on DGKζ and at DGKα was 100 to 1000 nM each time.

For the compound `Cn1c(=O)c(C#N)c(N(C)[C@H]2CC[C@@H](N(CC3CC3)c3ccc(F)c(F)c3)CC2)c2nc(C#N)ccc21` [Example 60, cis-8-((4-((cyclopropylmethyl)(3,4-difluorophenyl)amino)cyclohexyl)(methyl)amino)-5-methyl-6-oxo-5,6-dihydro-1,5-naphthyridine-2,7-dicarbonitrile], the IC50 fell in the range of 10 to 100 nM on DGKζ and 100 to 1000 nM at DGKα.

In the case of `Cc1cc(F)ccc1N(CC1CCOC1)[C@H]1CC[C@@H](N(C)c2cc(=O)n(C)c3ccc(C#N)nc23)CC1` (stereo partly drawn) [Example 164, cis-8-((-4-((4-fluoro-2-methylphenyl) ((tetrahydrofuran-3-yl)methyl)amino)cyclohexyl) (methyl)amino)-5-methyl-6-oxo-5,6-dihydro-1,5-naphthyridine-2-carbonitrile], the IC50 on DGKζ and on DGKα was 100 to 1000 nM throughout.

For the compound `Cn1c(=O)cc(N(C)[C@H]2CC[C@@H](N(CC3COCCO3)c3ccc(F)c(OC(F)F)c3)CC2)c2nc(C#N)ccc21` (stereo partly drawn) [Example 188, cis-8-((-4-(((1,4-dioxan-2-yl)methyl)(3-(difluoromethoxy)-4-fluorophenyl)amino)cyclohexyl) (methyl)amino)-5-methyl-6-oxo-5,6-dihydro-1,5-naphthyridine-2-carbonitrile], the IC50 at DGKζ and on DGKα was 100 to 1000 nM in each case.

With `Cc1[nH]c2ccccc2c1C(=O)N[C@H]1CC[C@H](N(CC2COC2)c2ccccc2)CC1` [Example 4C, trans-2-Methyl-N-(4-((oxetan-3-ylmethyl)(phenyl)amino)cyclohexyl)-1H-indole-3-carboxamide], the IC50 on DGKζ and on DGKα was not below 1000 nM throughout.

`Cn1c(=O)c(C#N)c(N(C)[C@H]2CC[C@H](N(CC3CC3)c3ccc(F)c(CN4CCOCC4)c3)CC2)c2nc(C#N)ccc21` [Example 174, trans-8-((-4-((cyclopropylmethyl)(4-fluoro-3-(morpholinomethyl)phenyl)amino)cyclohexyl) (methyl)amino)-5-methyl-6-oxo-5,6-dihydro-1,5-naphthyridine-2,7-dicarbonitrile]: the IC50 on DGKζ and on DGKα was 100 to 1000 nM in each case.

In the case of `Cn1c(=O)c(C#N)c(N(C)[C@H]2CC[C@@H](N(CC3CCC3)c3cccc4c3OCO4)CC2)c2nc(Cl)ccc21` [Example 110, cis-4-((-4-(benzo[d][1,3]dioxol-4-yl(cyclobutylmethyl)amino)cyclohexyl)(methyl)amino)-6-chloro-1-methyl-2-oxo-1,2-dihydro-1,5-naphthyridine-3-carbonitrile], the IC50 lay in the range of 100 to 1000 nM on DGKζ and 10 to 100 nM on DGKα.

Turning to `Cn1c(=O)c(C#N)c(N(C)[C@H]2CC[C@@H](N(CC3CC3)c3cc(F)cc(F)c3)CC2)c2nc(C#N)ccc21` [Example 81], the IC50 on DGKζ and on DGKα was 10 to 100 nM in each case.

As to `Cn1c(=O)c(C#N)c(N(C)[C@H]2CC[C@@H](N(CC3CCOCC3)c3ccc(F)cc3)CC2)c2nc(C#N)ccc21` [Example 53, cis-8-((-4-((4-fluorophenyl)((tetrahydro-2H-pyran-4-yl)methyl)amino)cyclohexyl)(methyl)amino)-5-methyl-6-oxo-5,6-dihydro-1,5-naphthyridine-2,7-dicarbonitrile], the results for the IC50 at DGKζ and at DGKα were 100 to 1000 nM and 10 to 100 nM, respectively.

Take `Cc1[nH]c2ccccc2c1C(=O)N[C@H]1CC[C@@H](N(CC2COC2)c2ccccc2)CC1` [Example 4D, cis-2-Methyl-N-(4-((oxetan-3-ylmethyl)(phenyl)amino)cyclohexyl)-1H-indole-3-carboxamide]: the IC50 on DGKζ and on DGKα was not below 1000 nM each time.

For `Cn1c(=O)c(C#N)c(N(C)[C@H]2CC[C@H](N(CC3COCCO3)c3ccc(F)cc3)CC2)c2nc(C#N)ccc21` (stereo partly drawn) [Example 149, trans-8-((-4-(((1,4-dioxan-2-yl)methyl)(4-fluorophenyl)amino)cyclohexyl)(methyl)amino)-5-methyl-6-oxo-5,6-dihydro-1,5-naphthyridine-2,7-dicarbonitrile], the IC50 at DGKζ and on DGKα was 100 to 1000 nM throughout.

Take `Cn1c(=O)c(C#N)c(N(C)[C@H]2CC[C@H](N(c3ccc(F)cn3)C3CC3)CC2)c2nc(Cl)ccc21` [Example 3I]: the IC50 fell in the range of 100 to 1000 nM on DGKζ and 10 to 100 nM on DGKα.

As for `COc1cc(N(CC2CC2)[C@H]2CC[C@@H](N(C)c3cc(=O)n(C)c4ccc(C#N)nc34)CC2)cc(OC)c1F` [Example 124, cis-8-((-4-((cyclopropylmethyl)(4-fluoro-3,5-dimethoxyphenyl)amino)cyclohexyl)(methyl)amino)-5-methyl-6-oxo-5,6-dihydro-1,5-naphthyridine-2-carbonitrile], the IC50 on DGKζ is 10 to 100 nM; at DGKα, 100 to 1000 nM.

Regarding `COc1cc(N(C2CC2)[C@H]2CC[C@@H](N(C)c3c(C#N)c(=O)n(C)c4ccc(C#N)nc34)CC2)ccc1F` [Example 65], the IC50 at DGKζ and at DGKα was 10 to 100 nM each time.

`Cn1c(=O)c(C#N)c(N(C)[C@H]2CC[C@@H](N(CC3CC3)c3ccc4c(c3)OCO4)CC2)c2nc(Cl)ccc21` [Example 78]: the IC50 lay in the range of 10 to 100 nM on DGKζ and 100 to 1000 nM at DGKα.

As to `Cc1ccc(F)cc1N(CC1CC1)[C@H]1CC[C@H](N(C)c2c(C#N)c(=O)n(C)c3ccc(C#N)nc23)CC1` [Example 117, trans-8-((4-((cyclopropylmethyl)(5-fluoro-2-methylphenyl)amino)cyclohexyl)(methyl)amino)-5-methyl-6-oxo-5,6-dihydro-1,5-naphthyridine-2,7-dicarbonitrile], the IC50 on DGKζ is 10 to 100 nM; at DGKα it was not below 1000 nM.

As usually defined, the IC50 is the concentration needed to halve the response being measured.

The values above are taken from US20230271954A1 (Gossamer Bio Services, Inc., priority 2020, published 2023).
